From patent US20180243298A1, “TRPV3 MODULATORS” (AbbVie Inc., priority 2015, published 2018)
pIC50: −log10 of the molar value.

biological target: T1, human TRPV3 (Homo sapiens, UniProt Q8NET8); experiment: Calcium flux assay (FLIPR TETRA), recombinant HEK293 cells expressing TRPV3, 2-APB response; format: cell-based; conditions: 2-APB at its EC80
T1 construct: expressed in transfected cells; host or cells: HEK293
T1 sequence (Q8NET8 1-790): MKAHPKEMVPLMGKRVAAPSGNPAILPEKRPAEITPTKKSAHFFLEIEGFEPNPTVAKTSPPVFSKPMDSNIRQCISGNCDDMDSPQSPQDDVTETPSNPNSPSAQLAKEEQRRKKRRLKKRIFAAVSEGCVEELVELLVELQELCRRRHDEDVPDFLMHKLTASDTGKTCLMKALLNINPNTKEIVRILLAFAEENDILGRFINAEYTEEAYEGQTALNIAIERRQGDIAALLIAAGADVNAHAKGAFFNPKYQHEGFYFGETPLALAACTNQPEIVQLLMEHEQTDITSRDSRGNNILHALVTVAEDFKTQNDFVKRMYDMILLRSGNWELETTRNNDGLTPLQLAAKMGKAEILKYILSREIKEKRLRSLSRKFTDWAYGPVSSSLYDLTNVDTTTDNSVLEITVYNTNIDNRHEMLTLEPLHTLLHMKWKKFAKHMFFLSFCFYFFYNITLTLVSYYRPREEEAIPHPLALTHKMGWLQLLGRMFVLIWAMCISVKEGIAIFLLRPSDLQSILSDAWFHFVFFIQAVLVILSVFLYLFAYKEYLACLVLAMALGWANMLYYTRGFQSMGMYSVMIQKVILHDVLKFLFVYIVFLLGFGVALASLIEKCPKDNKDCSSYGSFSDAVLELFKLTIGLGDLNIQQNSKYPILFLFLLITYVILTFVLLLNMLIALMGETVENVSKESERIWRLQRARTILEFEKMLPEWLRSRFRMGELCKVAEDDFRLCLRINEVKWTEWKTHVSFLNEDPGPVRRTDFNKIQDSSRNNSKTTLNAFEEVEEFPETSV
Method: (i) In Vitro Methods-Calcium Flux Assays:
Experiments were conducted using the FLIPR TETRA®. On the day prior to the experiment, recombinant HEK293 cells that stably express human and mouse TRPV3 were removed from tissue culture flasks and plated in growth medium at 20,000 cells/well into black-walled clear-bottom 384-well BIOCOAT™ poly-D-lysine assay plates (BD Biosciences, Bedford, Mass.) using a MULTIDROP® dispenser (ThermoScientific, Waltham, Mass.). On the day of the experiment, growth medium was removed, and the no-wash FLIPR® Calcium-4 dye (λEX=470-495 nm, λEM=515-575 nm; Molecular Devices, Sunnyvale, Calif.) was added to each well using the MULTIDROP® dispenser. Cells were incubated for 90-120 minutes in the dark. The compounds were dissolved in DMSO to prepare a 10 mM stock solution. The intensity of the fluorescence was captured and digitally transferred to an interfaced PC. The peak increase in fluorescence over baseline, measured in relative fluorescence units, was calculated and expressed as the percentage of the maximal 2-APB (2-aminoethoxyldiphenyl borate) response (in the absence of compound). The concentration of 2-APB corresponds to its EC80.

Compound | pIC50
CO/N=C(\C)c1sc(NC(=O)c2c(OC)ncnc2OC)nc1C(F)(F)F [Example 135, 4,6-dimethoxy-N-{5-[(1E)-N-methoxyethanimidoyl]-4-(trifluoromethyl)-1,3-thiazol-2-yl}pyrimidine-5-carboxamide] | > 7.30
CCCc1sc(NC(=O)c2c(OC)ncnc2OC)nc1C(F)(F)F [Example 34, 4,6-dimethoxy-N-[5-propyl-4-(trifluoromethyl)-1,3-thiazol-2-yl]pyrimidine-5-carboxamide] | > 7.30
COc1ncnc(OC)c1C(=O)Nc1nc(-c2ccc(C(F)(F)F)cn2)c(C(C)=O)s1 [Example 87, N-{5-acetyl-4-[5-(trifluoromethyl)pyridin-2-yl]-1,3-thiazol-2-yl}-4,6-dimethoxypyrimidine-5-carboxamide] | 7.00 to 7.30
COc1ncnc(OC)c1C(=O)Nc1nc(C(F)(F)F)c(Cl)s1 [Example 63, N-[5-chloro-4-(trifluoromethyl)-1,3-thiazol-2-yl]-4,6-dimethoxypyrimidine-5-carboxamide] | > 7.30
COc1ncnc(OC)c1C(=O)Nc1nc(-c2ccc(C(F)(F)F)cn2)cs1 [Example 73, 4,6-dimethoxy-N-{4-[5-(trifluoromethyl)pyridin-2-yl]-1,3-thiazol-2-yl}pyrimidine-5-carboxamide] | > 7.30
4,6-dimethoxy-N-[5-(2-methoxypyrimidin-5-yl)-4-(trifluoromethyl)-1,3-thiazol-2-yl]pyrimidine-5-carboxamide [Example 183] | 6.30 to 7.00
COc1ncnc(OC)c1C(=O)Nc1nc(C(F)(F)F)c(-c2c[nH]c3cc(C#N)ccc23)s1 [Example 44, N-[5-(6-cyano-1H-indol-3-yl)-4-(trifluoromethyl)-1,3-thiazol-2-yl]-4,6-dimethoxypyrimidine-5-carboxamide] | 6.30 to 7.00
COc1ncnc(OC)c1C(=O)Nc1nc(C(F)(F)F)c(C(O)c2ccccc2)s1 (stereo not drawn) [Example 120, N-{5-[hydroxy(phenyl)methyl]-4-(trifluoromethyl)-1,3-thiazol-2-yl}-4,6-dimethoxypyrimidine-5-carboxamide] | 6.30 to 7.00
COc1ncnc(OC)c1C(=O)Nc1nc(-c2ccc(OC(F)(F)F)cc2)cs1 [Example 93, 4,6-dimethoxy-N-{4-[4-(trifluoromethoxy)phenyl]-1,3-thiazol-2-yl}pyrimidine-5-carboxamide] | 6.30 to 7.00
COc1ncnc(OC)c1C(=O)Nc1nc(C(F)(F)F)c(C#CCO)s1 [Example 12, N-[5-(3-hydroxyprop-1-yn-1-yl)-4-(trifluoromethyl)-1,3-thiazol-2-yl]-4,6-dimethoxypyrimidine-5-carboxamide] | 6.30 to 7.00
COc1ncnc(OC)c1C(=O)Nc1nc(C(C)(C)C)c(Br)s1 [Example 192, N-(5-bromo-4-tert-butyl-1,3-thiazol-2-yl)-4,6-dimethoxypyrimidine-5-carboxamide] | > 7.30
COc1ncnc(OC)c1C(=O)Nc1nc(C2CCC2)c(F)s1 [Example 101, N-(4-cyclobutyl-5-fluoro-1,3-thiazol-2-yl)-4,6-dimethoxypyrimidine-5-carboxamide] | 7.00 to 7.30
COc1ncnc(OC)c1C(=O)Nc1nc(C(F)(F)F)c(C2COC(C)(C)O2)s1 (stereo not drawn) [Example 35, N-[5-(2,2-dimethyl-1,3-dioxolan-4-yl)-4-(trifluoromethyl)-1,3-thiazol-2-yl]-4,6-dimethoxypyrimidine-5-carboxamide] | 6.30 to 7.00
COc1ncnc(OC)c1C(=O)Nc1nc(C(F)(F)F)c(C2(O)CCC2)s1 [Example 119, N-[5-(1-hydroxycyclobutyl)-4-(trifluoromethyl)-1,3-thiazol-2-yl]-4,6-dimethoxypyrimidine-5-carboxamide] | < 6.00
COc1ncnc(OC)c1C(=O)Nc1nc(-c2ccc(C(F)(F)F)cn2)c(C#N)s1 [Example 97, N-{5-cyano-4-[5-(trifluoromethyl)pyridin-2-yl]-1,3-thiazol-2-yl}-4,6-dimethoxypyrimidine-5-carboxamide] | 7.00 to 7.30
COc1ncnc(OC)c1C(=O)Nc1nc(C(F)(F)F)c(CN2CC[C@H](OC)C2)s1 [Example 59, 4,6-dimethoxy-N-[5-{[(3S)-3-methoxypyrrolidin-1-yl]methyl}-4-(trifluoromethyl)-1,3-thiazol-2-yl]pyrimidine-5-carboxamide] | 6.00 to 6.30
COc1ncnc(OC)c1C(=O)Nc1nc(-c2ccc(OC(F)(F)F)cc2)c(C(C)O)s1 (stereo not drawn) [Example 82, N-{5-(1-hydroxyethyl)-4-[4-(trifluoromethoxy)phenyl]-1,3-thiazol-2-yl}-4,6-dimethoxypyrimidine-5-carboxamide] | 6.30 to 7.00

Continued, values first:

pIC50 | Compound
6.30 to 7.00 | COc1ncnc(OC)c1C(=O)Nc1nc(C(F)(F)F)c(-c2cc3ncccc3o2)s1 [Example 187, N-[5-(furo[3,2-b]pyridin-2-yl)-4-(trifluoromethyl)-1,3-thiazol-2-yl]-4,6-dimethoxypyrimidine-5-carboxamide]
> 7.30 | COc1ncnc(OC)c1C(=O)Nc1nc(C(F)(F)F)c(C2=COCC2)s1 [Example 145, N-(5-(4,5-dihydrofuran-3-yl)-4-(trifluoromethyl)thiazol-2-yl)-4,6-dimethoxypyrimidine-5-carboxamide]
> 7.30 | COc1ncnc(OC)c1C(=O)Nc1nc(C(F)(F)F)c(-c2ccnc(C3(C#N)CC3)c2)s1 [Example 151, N-{5-[2-(1-cyanocyclopropyl)pyridin-4-yl]-4-(trifluoromethyl)-1,3-thiazol-2-yl}-4,6-dimethoxypyrimidine-5-carboxamide]
7.00 to 7.30 | COc1ncnc(OC)c1C(=O)Nc1nc(C(F)(F)F)c(-c2ccnc(N3CCOCC3)c2)s1 [Example 182, 4,6-dimethoxy-N-{5-[2-(morpholin-4-yl)pyridin-4-yl]-4-(trifluoromethyl)-1,3-thiazol-2-yl}pyrimidine-5-carboxamide]
6.00 to 6.30 | COc1ncnc(OC)c1C(=O)Nc1nc(C(F)(F)F)c(CN2CCCC2)s1 [Example 49, 4,6-dimethoxy-N-[5-(pyrrolidin-1-ylmethyl)-4-(trifluoromethyl)-1,3-thiazol-2-yl]pyrimidine-5-carboxamide]
6.30 to 7.00 | COc1ncnc(OC)c1C(=O)Nc1nc(C(F)(F)F)c(-c2ccc(N3CCOCC3)nc2)s1 [Example 23, 4,6-dimethoxy-N-{5-[6-(morpholin-4-yl)pyridin-3-yl]-4-(trifluoromethyl)-1,3-thiazol-2-yl}pyrimidine-5-carboxamide]
7.00 to 7.30 | COc1ncnc(OC)c1C(=O)Nc1nc(C(F)(F)F)c(C)s1 [Example 1, 4,6-dimethoxy-N-[5-methyl-4-(trifluoromethyl)-1,3-thiazol-2-yl]pyrimidine-5-carboxamide]
6.30 to 7.00 | COc1ncnc(OC)c1C(=O)Nc1nc(C(F)(F)F)c(-c2cccc(CC#N)n2)s1 [Example 155, N-{5-[6-(cyanomethyl)pyridin-2-yl]-4-(trifluoromethyl)-1,3-thiazol-2-yl}-4,6-dimethoxypyrimidine-5-carboxamide]
7.00 to 7.30 | COc1ncnc(OC)c1C(=O)Nc1nc(C(F)(F)F)c(-c2cc(C(C)C)no2)s1 [Example 171, 4,6-dimethoxy-N-{5-[3-(propan-2-yl)-1,2-oxazol-5-yl]-4-(trifluoromethyl)-1,3-thiazol-2-yl}pyrimidine-5-carboxamide]
7.00 to 7.30 | COc1ncnc(OC)c1C(=O)Nc1nc(C(F)(F)F)c(-c2ocnc2C)s1 [Example 141, 4,6-dimethoxy-N-[5-(4-methyl-1,3-oxazol-5-yl)-4-(trifluoromethyl)-1,3-thiazol-2-yl]pyrimidine-5-carboxamide]
